A word on the IC50: it is the concentration at which inhibition is half-maximal.

The text below walks through data of US10023528B2, “Branched 3-phenylpropionic acid derivatives and their use” (BAYER INTELLECTUAL PROPERTY GMBH, priority 2011, dated 2018).

For experiment [1], the target named is recombinant soluble guanylate cyclase (sGC), haem-containing (Rattus norvegicus (Rat), UniProt P20595). Put plainly: Stimulation of recombinant soluble guanylate cyclase (sGC) in vitro, haem-containing enzyme. The class given is biochemical. The note with it: for Stimulation (x-fold) of haem-containing sGC, basal: n = 5. From the text: Hoenicka, E. M. Becker, H. Apeler, T. Sirichoke. H. Schroeder, R. Gerzer and J.-P. Stasch, “Purified soluble guanylyl cyclase expressed in a baculovirus/Sf9 system: Stimulation by YC-1, nitric oxide, and […]”, J. Mol. Med. 77 (1999), 14-23. The haem-free guanylate cyclase is obtained by adding Tween 20 to the sample buffer (0.5% in the final concentration).
Chain of recombinant soluble guanylate cyclase (sGC), haem-containing (P20595 whole entry): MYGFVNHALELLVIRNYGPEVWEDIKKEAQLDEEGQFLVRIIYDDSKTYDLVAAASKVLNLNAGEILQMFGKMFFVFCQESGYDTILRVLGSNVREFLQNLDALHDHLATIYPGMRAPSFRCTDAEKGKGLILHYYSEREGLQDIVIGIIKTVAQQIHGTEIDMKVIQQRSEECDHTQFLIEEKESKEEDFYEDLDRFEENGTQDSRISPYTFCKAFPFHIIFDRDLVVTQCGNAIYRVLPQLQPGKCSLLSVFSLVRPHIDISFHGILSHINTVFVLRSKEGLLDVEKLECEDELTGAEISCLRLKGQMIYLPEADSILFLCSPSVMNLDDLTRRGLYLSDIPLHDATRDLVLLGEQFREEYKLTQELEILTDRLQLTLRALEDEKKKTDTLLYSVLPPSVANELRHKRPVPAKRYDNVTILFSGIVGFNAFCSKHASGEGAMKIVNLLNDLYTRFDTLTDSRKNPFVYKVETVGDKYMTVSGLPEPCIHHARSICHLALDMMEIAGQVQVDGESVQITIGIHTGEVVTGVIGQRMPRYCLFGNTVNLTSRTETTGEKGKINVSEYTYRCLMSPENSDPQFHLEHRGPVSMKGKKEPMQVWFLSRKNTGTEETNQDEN
Chain of recombinant soluble guanylate cyclase (sGC), haem-containing (P19686 whole entry partner): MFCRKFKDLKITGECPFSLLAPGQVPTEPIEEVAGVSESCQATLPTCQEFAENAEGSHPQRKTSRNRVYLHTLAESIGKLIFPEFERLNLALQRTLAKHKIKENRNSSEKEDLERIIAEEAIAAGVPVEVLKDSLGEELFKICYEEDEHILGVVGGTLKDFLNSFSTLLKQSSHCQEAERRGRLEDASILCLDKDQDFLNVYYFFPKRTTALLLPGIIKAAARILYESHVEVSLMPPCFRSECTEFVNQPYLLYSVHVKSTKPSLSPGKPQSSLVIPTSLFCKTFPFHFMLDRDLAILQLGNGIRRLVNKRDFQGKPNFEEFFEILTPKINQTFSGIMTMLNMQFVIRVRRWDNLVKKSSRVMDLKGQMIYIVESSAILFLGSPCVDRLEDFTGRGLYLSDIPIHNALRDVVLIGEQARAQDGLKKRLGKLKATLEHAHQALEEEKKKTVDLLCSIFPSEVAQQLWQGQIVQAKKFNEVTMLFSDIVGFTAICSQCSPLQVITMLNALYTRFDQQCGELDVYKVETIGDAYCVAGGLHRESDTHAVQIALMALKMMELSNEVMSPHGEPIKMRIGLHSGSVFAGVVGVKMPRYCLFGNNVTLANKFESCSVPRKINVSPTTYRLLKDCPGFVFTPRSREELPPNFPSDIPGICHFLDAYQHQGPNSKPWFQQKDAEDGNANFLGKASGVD
(§1) The activation of sGC by a test substance is reported as x-fold stimulation of the basal activity.

The target of experiment [2] is recombinant soluble guanylate cyclase (sGC), haem-free (Rattus norvegicus (Rat), UniProt P20595). The experiment is described as follows: Stimulation of recombinant soluble guanylate cyclase (sGC) in vitro, haem-free enzyme. The class given is biochemical. The note with it: n = 5. As for the experimental part: Investigations on the stimulation of recombinant soluble guanylate cyclase (sGC) by the compounds according to the invention with and without sodium nitroprusside, and with and without the haem-dependent sGC inhibitor 1H-1,2,4-oxadiazolo[4,3a]quinoxalin-1-one (ODQ), are carried out by the method described in detail in the following reference: M. Hoenicka, E. M. Becker, H. Apeler, T. Sirichoke. H. Schroeder, R. Gerzer and J.-P. Stasch, “Purified soluble guanylyl cyclase expressed in a baculovirus/Sf9 system: Stimulation by YC-1, nitric oxide, and […]”, J. Mol. Med. 77 (1999), 14-23. The haem-free guanylate cyclase is obtained by adding Tween 20 to the sample buffer (0.5% in the final concentration).
Chain of recombinant soluble guanylate cyclase (sGC), haem-free (P20595 whole entry): as the sequence (P20595 whole entry) above
Chain of recombinant soluble guanylate cyclase (sGC), haem-free (P19686 whole entry partner): as the sequence (P19686 whole entry partner) above
as §1

For experiment [3], the system named is recombinant guanylate cyclase reporter cell line (CHO reporter cell). The experiment is described as follows: Action at a recombinant guanylate cyclase reporter cell line. The class given is cell-based. The following applies: CHO reporter cell in vitro; read-out: MEC (minimum effective concentration), sGC-activating activity in the CHO reporter cell. As to the method: The cellular action of the compounds according to the invention is determined at a recombinant guanylate cyclase reporter cell line, as described in F. Wunder et al., Anal. Biochem. 339, 104-112 (2005).

Experiment [4] deals with soluble guanylate cyclase (sGC) (Rattus norvegicus (Rat), UniProt P20595). Put plainly: Stimulation of sGC enzyme activity (PPi detection, luciferase). It counts as biochemical. The note with it: sGC enzyme in vitro; for EC50: read-out: EC50 (concentration at 50% of maximum efficacy), activating action at the sGC enzyme. As to the method:
Soluble guanylate cyclase (sGC) converts on stimulation GTP into cGMP and pyrophosphate (PPi). PPi is detected with the aid of the assay described below. The signal produced in the assay increases as the reaction progresses and serves as a measure of the sGC enzyme activity under the given stimulation.
To carry out the assay, 29 μl of enzyme solution [0-10 nM soluble guanylate cyclase (prepared according to Hönicka et al, J. Mol. Med. 77, 14-23 (1999)) in 50 mM TEA, 2 mM MgC2, 0.1% BSA (fraction V), 0.005% Brij®, pH 7.5] are initially introduced into a microplate, and 1 μl of the substance to be tested (as a serially diluted solution in DMSO) is added. The mixture is incubated at room temperature for 10 min. Then 20 μl of detection mix [1.2 nM Firefly Luciferase (Photinus pyralis luciferase, Promega), 29 μM dehydroluciferin (prepared according to Bitler & McElroy, Arch. Biochem. Biophys. 72, 358 (1957)), 122 μM luciferin (Promega), 153 μM ATP (Sigma) and 0.4 mM DTT (Sigma) in 50 mM TEA, 2 mM MgCl2, 0.1% BSA (fraction V), 0.005% Brij®, pH 7.5] are added. The enzyme reaction is started by adding 20 μl of substrate solution [1.25 mM guanosine 5′-triphosphate (Sigma) in 50 mM TEA, 2 mM MgC2, 0.1% BSA (fraction V), 0.005% Brij®, pH 7.5] and measured continuously in a luminometer. The extent of the stimulation by the substance to be tested can be determined relative to the signal of the unstimulated reaction.
The activation of haem-free guanylate cyclase is examined by addition of 25 μM of 1H-1,2,4-oxadiazolo[4,3-a]quinoxalin-1-one (ODQ) to the enzyme solution and subsequent incubation for 30 minutes and compared to the stimulation of the native enzyme.

The test system of a further experiment is saphenous artery rings. Put plainly: Vasorelaxant effect in vitro (phenylephrine-contracted saphenous artery rings). The note with it: Oryctolagus cuniculus; rabbit saphenous artery rings, phenylephrine-induced contraction. The class given is cell-based. As to the method:
Rabbits are anaesthetized and sacrificed by intravenous injection of thiopental sodium (about 50 mg/kg) and exsanguinated. The saphenous artery is removed and divided into rings 3 mm wide. The rings are mounted singly on in each case a pair of triangular hooks open at the end and made of 0.3 mm-thick special wire (Remanium®). Each ring is placed under an initial tension in 5 ml organ baths with Krebs-Henseleit solution which is at 37° C., is gassed with carbogen and has the following composition: NaCl 119 mM; KCl 4.8 mM; CaCl2×2 H2O 1 mM; MgSO4×7 H2O 1.4 mM; KH2PO4 1.2 mM; NaHCO3 25 mM; glucose 10 mM; bovine serum albumin 0.001%. The force of contraction is detected with Statham UC2 cells, amplified and digitized via A/D converters (DAS-1802 HC, Keithley Instruments, Munich) and recorded in parallel on chart recorders. Contractions are induced by addition of phenylephrine.
After several (generally 4) control cycles, the substance to be investigated is added in each further run in increasing dosage, and the level of the contraction achieved under the influence of the test substance is compared with the level of the contraction reached in the last preceding run. The concentration necessary to reduce the contraction reached in the preceding control by 50% is calculated from this (IC50). The standard application volume is 5 μl. The proportion of DMSO in the bath solution corresponds to 0.1%.

Chain of soluble guanylate cyclase (sGC) (P20595 whole entry): as the sequence (P20595 whole entry) above
Chain of soluble guanylate cyclase (sGC) (P19686 whole entry partner): as the sequence (P19686 whole entry partner) above

As for `C[C@H]([C@H](C(=O)Nc1cc(C(CC(=O)O)C2CC2)ccc1Cl)c1ccc(Cl)cc1)C(F)(F)F` (single isomer, unassigned; (+)) [Example 22], the “Stimulation (x-fold) of haem-containing sGC, +0.01 μM DEA/NO” value in experiment [1] (0.01 μM Example 22 + 0.01 μM DEA/NO) is given as 4.4 ± 1.3 x-fold; in experiment [1] (0.1 μM Example 22 + 0.01 μM DEA/NO) it was 3.4 ± 0.9 x-fold; in experiment [1] (1.0 μM Example 22 + 0.01 μM DEA/NO), 4.4 ± 1.4 x-fold; in experiment [1] (10 μM Example 22 + 0.01 μM DEA/NO) it was 7.8 ± 2.5 x-fold. Also, the “Stimulation (x-fold) of haem-containing sGC, +10 μM ODQ” value in experiment [1] (0.01 μM Example 22 + 10 μM ODQ) was found to be 5.7 ± 1.6 x-fold; in experiment [1] (0.1 μM Example 22 + 10 μM ODQ), 6.1 ± 1.7 x-fold; in experiment [1] (1.0 μM Example 22 + 10 μM ODQ), 8.4 ± 2.2 x-fold; in experiment [1] (10 μM Example 22 + 10 μM ODQ) it was 18.3 ± 5.4 x-fold. The “Stimulation (x-fold) of haem-containing sGC, basal” value in experiment [1] (0.01 μM Example 22) is 1.6 ± 0.3 x-fold; in experiment [1] (0.1 μM Example 22) it was 1.6 ± 0.5 x-fold; in experiment [1] (1.0 μM Example 22), 2.4 ± 1.0 x-fold; in experiment [1] (10 μM Example 22), 4.9 ± 1.2 x-fold. Also, the “Combination with the NO donor DEA/NO: synergistic effect on sGC stimulation” value in experiment [1] (haem-containing sGC, combination with DEA/NO) was “no synergistic effect”. For the same molecule, the “Effect of the haem-dependent sGC inhibitor ODQ on the sGC activation” value in experiment [1] (haem-containing sGC, with ODQ) is on record as “not blocked”. Also, the “Stimulation (x-fold) of haem-free sGC, basal” value in experiment [2] (0.01 μM Example 22) came to 1.2 ± 0.1 x-fold; in experiment [2] (0.1 μM Example 22) it was 1.6 ± 0.5 x-fold; in experiment [2] (1.0 μM Example 22), 4.9 ± 1.5 x-fold; in experiment [2] (10 μM Example 22) it was 14.2 ± 2.0 x-fold. For the same molecule, the minimal effective concentration in experiment [3] worked out at 0.0018 µM. For the same molecule, the “MEC (minimum effective concentration), activating action at the sGC enzyme” value (from here on “MEC (minimum effective concentration)”) in experiment [4] is on record as 2.4 nM. Also, in experiment [4], the EC50 was found to be 68 nM. For the same molecule, it took 137 nM to reach half-maximal inhibition with saphenous artery rings (IC50).
Consider `CC(C)c1ccc([C@@H](C(=O)Nc2cc(C(CC(=O)O)C(C)C)ccc2Cl)[C@@H](C)C(F)(F)F)cc1` (stereo partly drawn) [Example 10], for which the minimal effective concentration in experiment [3] is 0.0003 µM. In addition, in experiment [4], the “MEC (minimum effective concentration)” value stood at 0.5 nM and the EC50 came out at 10 nM. The molecule also registered a 50% inhibitory concentration (IC50) with saphenous artery rings of 131 nM.
In the case of `CC(C)C(CC(=O)O)c1ccc(Cl)c(NC(=O)[C@H](c2ccc(C(C)(C)C)cc2)[C@@H](C)C(F)(F)F)c1` (stereo partly drawn) [Example 14], the minimal effective concentration in experiment [3] was 0.0003 µM. In experiment [4], the “MEC (minimum effective concentration)” value came to 0.5 nM and the EC50 was found to be 8.4 nM. This molecule came in with an IC50 in the experiment with saphenous artery rings of 269 nM.
